Data: US9187486B2 (AMGEN INC., priority 2011, dated 2015)
Like-named read-outs stand apart in the source and are kept apart here.

What was measured:
Pim-2 [1] = target: T1, Pim-2 (Homo sapiens (Human), UniProt Q9P1W9); assay: Pim-Mn enzyme assay (HTRF, 384-well), Pim-2; format: biochemical; conditions: Pim-2 enzyme 0.5 pM, ATP […], read-out: Pim-2-Mn IC50 IP
Excerpt: (§1) Full-length human cDNAs encoding Pim-1 (MGC ID 3913552) or Pim-2 (IMAGE ID 5092935) were purchased from Invitrogen, Carlsbad, Calif. These cDNAs were used as templates in PCR reactions to produce full-length DNA clones of the PIMs. Oligonucleotide PCR primers for Pim-1 were 5′-[…]-3′ and 5′-[…]-3′. Oligonucleotide PCR primers for Pim-2 were 5′-[…]-3′ and 5′-[…]-3′. PCR products were digested with BclI and EcoRI for Pim-1 and BamHI and EcoRI for Pim-2 and ligated into a modified baculovirus transfer vector (pFastBac 1) cleaved with BamHI and EcoRI. […]
(§2) The frozen cell pellets were thawed by stirring in chilled lysis buffer (0.05 M HEPES, pH 8.0, 0.25 M NaCl, 0.01 M 2-mercaptoethanol, 10% (w/v) glycerol, 0.5% (v/v) protease inhibitor cocktail (Sigma P-8340) at a ratio of 1 L/200 g cells until homogeneous. The thawed suspension was applied to a microfluidizer at 10,000 PSI to disrupt the cells and the whole lysates were clarified by centrifugation at 50,000×g for 90 min, 4° C. Imidazole was added to the clarified lysate to a final concentration of 2.5 mM and the lysate was mixed with 10 mL of Talon resin (Clontech) and the slurry rocked gently overnight at 4° C. […] Fractions were analyzed by SDS-PAGE and those containing the protein of interest were pooled and concentrated. […] The protein eluted at a retention time indicative of it being monomeric and fractions were analyzed by SDS-PAGE. […]

Pim-1 [2] = target: T2, Pim-1 (Homo sapiens (Human), UniProt P11309); assay: Pim-Mn enzyme assay (HTRF, 384-well), Pim-1; format: biochemical; conditions: Pim-1 enzyme 5 pM, ATP […], read-out: Pim-1-Mn IC50 IP
T2 sequence (P11309 whole entry): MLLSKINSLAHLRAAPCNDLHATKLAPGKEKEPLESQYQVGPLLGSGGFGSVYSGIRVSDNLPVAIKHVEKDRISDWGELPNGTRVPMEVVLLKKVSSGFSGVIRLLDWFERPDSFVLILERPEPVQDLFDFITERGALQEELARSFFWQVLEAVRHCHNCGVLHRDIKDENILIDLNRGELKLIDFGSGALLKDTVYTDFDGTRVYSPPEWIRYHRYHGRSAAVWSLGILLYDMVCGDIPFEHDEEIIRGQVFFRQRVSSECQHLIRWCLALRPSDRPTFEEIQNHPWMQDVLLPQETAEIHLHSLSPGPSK
Excerpt: as §1, §2

Pim-2 [3] = target: T1, Pim-2; assay: Pim enzyme assay (HTRF, phosphorylation of biotinylated-BAD (S112) peptide), Pim-2; format: biochemical
In short: (§3)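 Full-length human Pim-1 or Pim-2 with an N-terminal His6 tag, expressed in Sf9 or E. coli and purified as monomer. HTRF read-out: biotinylated BAD (S112) peptide phosphorylation detected with streptavidin-APC plus Eu-anti-phospho-BAD(S112) antibody, excitation 337 nm, emission 665 nm.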

[4] = test system: KMS-12-BM myeloma cell line; assay: Pim cell assay: phospho-BAD (S112) and total BAD in KMS-12-BM cells; format: cell-based; conditions: 1 hour and 50 minutes incubation
In short: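 KMS-12-BM myeloma cells, after overnight culture, got a 10-point compound dose series (0.3% DMSO) for 1 h 50 min at 37 °C. Lysates measured for phospho-BAD (S112) and total BAD by MSD immunoassay; % phosphoprotein = 2×phospho/(phospho+total)×100.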

Pim-1 [5] = target: T2, Pim-1; assay: Pim enzyme assay (HTRF, phosphorylation of biotinylated-BAD (S112) peptide), Pim-1; format: biochemical
In short: as §3

[6] = full length recombinant Pim-2, biotinylated-BAD (S112) peptide, HTRF, 96-well, read-out: Pim-2 IC50 IP
[7] = full length recombinant Pim-1, biotinylated-BAD (S112) peptide, HTRF, 96-well, read-out: Pim-1 IC50 IP
[8] = full length recombinant Pim-2, biotinylated-BAD (S112) peptide, HTRF, read-out: Pim2_IC50
[9] = Homo sapiens, KMS-12-BM, read-out: KMS12_Cell_IC50
[10] = full length recombinant Pim-1, biotinylated-BAD (S112) peptide, HTRF, read-out: Pim_1_IC50

T1 sequence (Q9P1W9 whole entry): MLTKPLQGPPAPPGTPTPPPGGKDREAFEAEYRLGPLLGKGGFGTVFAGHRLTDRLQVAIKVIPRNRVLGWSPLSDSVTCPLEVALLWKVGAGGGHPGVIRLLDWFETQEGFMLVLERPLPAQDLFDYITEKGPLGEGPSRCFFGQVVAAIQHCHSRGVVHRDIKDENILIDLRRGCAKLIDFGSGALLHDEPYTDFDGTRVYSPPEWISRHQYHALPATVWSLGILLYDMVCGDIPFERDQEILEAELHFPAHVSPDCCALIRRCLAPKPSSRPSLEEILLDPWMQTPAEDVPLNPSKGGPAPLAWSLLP

SMILES | IC50 (Pim-2 [3]; [6]) [nM] | IC50 (Pim-1 [5]; [7]) [nM] | IC50 (Pim-2 [3]; [8]) [nM] | IC50 [4, 9] [nM] | IC50 (Pim-1 [5]; [10]) [nM] | other results
Cc1noc(C)c1-c1ccncc1Nc1ncc2ccc(-c3c(F)cccc3F)nn12 [Example 106, 2-(2,6-Difluorophenyl)-N-(4-(3,5-dimethylisoxazol-4-yl)pyridin-3-yl)imidazo[1,5-b]pyridazin-7-amine bis(2,2,2-trifluoroacetate)] | – | – | – | – | – | IC50 (Pim-2 [1]): > 5000 nM; IC50 (Pim-1 [2]): 221 nM
Fc1cccc(F)c1-c1ccc2cnc(Nc3cnccc3C3=CCNCC3)n2n1 [Example 105, 2-(2,6-Difluorophenyl)-N-(1′,2′,3′,6′-tetrahydro-[4,4′-bipyridin]-3-yl)imidazo[1,5-b]pyridazin-7-amine bis(2,2,2-trifluoroacetate)] | – | – | – | – | – | IC50 (Pim-2 [1]): 1050 nM; IC50 (Pim-1 [2]): 35 nM
N[C@H]1C[C@@H](C(F)(F)F)CN(c2ccncc2Nc2ncc3ccc(-c4c(F)cccc4F)nn23)C1 (racemic) [Example 60, rac-N-(4-((cis)-3-amino-5-(trifluoromethyl)piperidin-1-yl)pyridin-3-yl)-2-(2,6-difluorophenyl)imidazo[1,5-b]pyridazin-7-amine bis(2,2,2-trifluoroacetate)] | 0.3 | 0.1 | – | – | – | IC50 ([4]; Homo sapiens, KMS-12-BM, read-out: KMS-12-BM IC50 IP): 116 nM
C[C@H]1CCN(c2ccncc2Nc2ncc3ccc(-c4c(F)cccc4F)nn23)C[C@H]1N (single isomer, unassigned) [Example 99, N-(4-((cis)-3-amino-4-methylpiperidin-1-yl)pyridin-3-yl)-2-(2,6-difluorophenyl)imidazo[1,5-b]pyridazin-7-amine bis(2,2,2-trifluoroacetate)] | 1.6 | 0.3 | – | – | – | IC50 ([4]; bis(2,2,2-trifluoroacetate), read-out: KMS-12-BM IC50 IP): 2700 nM
C[C@H]1CN(c2ccncc2Nc2ncc3ccc(-c4ccc(S(C)(=O)=O)cc4F)nn23)C[C@@H](N)[C@@H]1O [Example 23, (3R,4R,5S)-3-amino-1-(3-((2-(2-fluoro-4-(methylsulfonyl)phenyl)imidazo[1,5-b]pyridazin-7-yl)amino)-4-pyridinyl)-5-methyl-4-piperidinol] | – | – | 0.5 | 1400 | 0.1 | –
Nc1cc(-c2ccncc2Nc2ncc3ccc(-c4c(F)cccc4F)nn23)ccn1 [Example 30, N3′-(2-(2,6-difluorophenyl)imidazo[1,5-b]pyridazin-7-yl)-4,4′-bipyridine-2,3′-diamine] | – | – | 185 | 21500 | 7 | –
N[C@H]1CCCN(c2ccncc2Nc2ncc3ccc(-c4cccnc4Cl)nn23)C1 [Example 6, N-(4-((3S)-3-amino-1-piperidinyl)-3-pyridinyl)-2-(2-chloro-3-pyridinyl)imidazo[1,5-b]pyridazin-7-amine (2,2,2-trifluoroacetate)] | – | – | 77 | 6660 | 8 | –
O[C@H]1CCN(c2ccncc2Nc2ncc3ccc(-c4c(F)cccc4F)nn23)C[C@@H]1O (mixture of isomers) [Example 25, (3S,4S)-1-(3-((2-(2,6-difluorophenyl)imidazo[1,5-b]pyridazin-7-yl)amino)-4-pyridinyl)-3,4-piperidinediol and (3R,4R)-1-(3-((2-(2,6-difluorophenyl)imidazo[1,5-b]pyridazin-7-yl)amino)-4-pyridinyl)-3,4-piperidinediol (1/1)] | – | – | – | – | – | IC50 (Pim-2 [3]; read-out: Pim2_IC50): 8 nM; IC50 ([4]; read-out: KMS12_Cell_IC50): 777 nM; IC50 (Pim-1 [5]; read-out: Pim_1_IC50): 2 nM
C[C@@H]1C[C@H](N)CN(c2ccncc2Nc2ncc3ccc(-c4ccccc4F)nn23)C1 (single isomer, unassigned) [Example 47, N-(4-((cis)-3-amino-5-methylpiperidin-1-yl)pyridin-3-yl)-2-(2-fluorophenyl)imidazo[1,5-b]pyridazin-7-amine tris(2,2,2-trifluoroacetate)] | 54.2 | 7.7 | – | – | – | IC50 ([4]; tris(2,2,2-trifluoroacetate), read-out: KMS-12-BM IC50 IP): 10200 nM
